Measured values as given in patent publication US20260327233A1, “Heteroaryl Compounds as Ligand Directed Degraders of IRAK4” (Celgene Corporation, priority 2023, published 2026).
Counter-ions that a name gives are not always drawn.

Columns and labels:
[1] = target: T1, IRAK4 (Homo sapiens, UniProt Q9NWZ3); assay: IRAK4 PhosphoSens Biochemical Assay (BIOCHEM); details: IRAK4 1 nM; ATP and Sox conjugated peptide substrate AQT0326; pH 7.5; room temperature; 240 minutes
T1 sequence (Q9NWZ3 1-460): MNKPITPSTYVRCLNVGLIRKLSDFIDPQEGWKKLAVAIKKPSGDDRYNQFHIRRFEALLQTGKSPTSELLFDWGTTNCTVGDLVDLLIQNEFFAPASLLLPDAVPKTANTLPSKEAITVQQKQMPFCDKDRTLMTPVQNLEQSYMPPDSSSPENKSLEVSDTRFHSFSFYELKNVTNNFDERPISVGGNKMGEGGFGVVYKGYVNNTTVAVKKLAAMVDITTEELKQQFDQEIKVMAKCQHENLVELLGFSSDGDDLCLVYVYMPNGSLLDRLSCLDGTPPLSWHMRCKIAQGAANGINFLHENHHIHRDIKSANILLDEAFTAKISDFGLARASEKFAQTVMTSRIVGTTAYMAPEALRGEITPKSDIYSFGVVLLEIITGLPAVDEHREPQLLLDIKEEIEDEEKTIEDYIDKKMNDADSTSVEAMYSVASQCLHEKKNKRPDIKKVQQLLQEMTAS
Description: The PhosphoSens® biochemical assay was performed as described by the vendor (AssayQuant Technologies Inc. Marlborough, MA). A 1.25× stock solution of IRAK4 (PV4002, ThermoFisher Scientific, Waltham, MA) and a 5× stock solution of ATP and Sox conjugated peptide substrate, AQT0326 (CSKS-AQT0326B, AssayQuant Technologies), were prepared in 1× kinase reaction buffer consisting of 50 mM HEPES, pH 7.5, 0.01% Brij-35, 0.5 mM EGTA, 20 mM MgCl2 and 1 mM DTT. 10 μL of the ATP and substrate solution mix, for a final concentration of 200 µM ATP and […] peptide substrate, was added to a Corning 3574 384-well, white, non-binding surface microtiter plate containing 0.5 μL of serially diluted test compounds prepared in DMSO. The reactions were started with the addition of 40 μL of the enzyme solution, for a final IRAK4 concentration of 1 nM, and monitored every 71 seconds for 240 minutes at λEX 360/λEM 485 in a BioTek Synergy H4 plate reader (Agilent Technologies, Santa Clara, CA) at room temperature. The initial linear portions of the progress curves were fit according to a linear equation to yield the slopes and converted to % inhibition based on a value of 100% activity for the no inhibitor treated control. IC50 values of each compound were obtained by fitting the % inhibition-compound concentration curves using Dotmatics software (Dotmatics, Bishops Stortford, Hertfordshire, England),

[2] = target: T1, IRAK4; assay: ALE THP1 HTRF (IRAK4 HTRF in THP1 cell lysate, Cisbio HTRF kit); type: cell-based; design: THP1 Homogeneous Time Resolved Fluorescence (ALE THP1 HTRF) Procedure; endogenous in cells; host or cells: THP1; details: anti-IRAK4 d2 / anti-IRAK4 k antibodies
Description: Cell culture media was prepared in a tissue culture hood in a sterile environment by adding 10% FBS and 1% Penicillin Streptomycin to 500 mL no phenol red RPMI 1640 media. The media was filtered through a Nalgene Bottle Top Filter and stored at 4° C.
For Homogenous Time Resolved Fluorescence (HTRF) assays, a Cisbio HTRF kit was used, which included: Lysis Buffer #1 4×, Blocking Reagent #3 100×, 20× Antibody 1 (Anti-IRAK4 d2), 20× Antibody 2 (Anti-IRAK4 k), and Detection Buffer.
4× Lysis Buffer was stored at 4° C. For use as 1× Lysis buffer, the 4× solution was diluted with de-ionized water (distilled water, Gibco Cat. #15230279) and 100× Blocking Reagent in a 1:3:0.04 volume ratio.
20× Antibody Solution aliquots were stored at −80° C. and the Detection Buffer was stored at 4° C. For use as a 1× Antibody Solution, the 20× Antibody Solution aliquot was diluted with Detection Buffer in a 1:19 volume ratio.
Cells were lysed at room temperature for 45 min with shaking. A BCA protein assay was performed and normalization was conducted to the desired total protein concentration with 1× lysis buffer. Next, 1× Antibody Solutions were prepared by adding 380 μL Detection Buffer to 20 μL 20× Antibody Solution aliquots and mixing well. 1× Antibody Solutions were combined 1:1 and briefly vortexed. For control wells, 20 μL 1× anti IRAK4-k Antibody Solution was saved. The 384-well plate (ProxiPlate-384 Plus, Perkin Elmer Cat. #6008289) was loaded by adding 4 μL of the mixed Antibody Solution to empty wells using a single channel repeater. Using a multi-channel repeater, 16 μL lysate was added per well, and any bubbles that were formed were popped with 20 μL pipette tips and Kimwipe edges. In column 10, triplicates of each control were prepared. In wells A10, B10, and C10, buffer control was prepared by adding 16 μL Lysis Buffer and 4 μL Detection Buffer. In wells D10, E10, and F10, cryptate control was prepared by adding 16 μL Lysis Buffer, 2 μL Detection Buffer, and 2 μL 1× anti-IRAK4-k Antibody Solution. In wells G10, H10, and 110, a negative control was prepared by adding 16 μL Lysis Buffer and 4 μL mixed Antibody Solution. The plate was sealed with a clear seal and covered with an aluminum lid. The plate was spun down at 800 g for 5 min and incubated in the dark at room temperature overnight. The next day, the plate was spun down at 800 g for 5 min. The samples were analyzed by a plate reader (Envision, PerkinElmer) using the Desnor 384 HTRF program.

SMILES | IC50 [1] | EC50 [2] | ALE THP1 HTRF YMIN [2]
CN(C[C@H]1CC[C@H](n2cc(NC(=O)c3cnn4ccc(N5C[C@H](N)C[C@@H](F)C5)nc34)c(C(F)F)n2)CC1)C1CCN(c2ccc3c(c2)CN(C2CCC(=O)NC2=O)C3=O)CC1 (stereo partly drawn) [Compound P-32, N-[3-(Difluoromethyl)-1-[4-[[[1-[2-(2,6-dioxo-3-piperidyl)-1-oxo-isoindolin-5-yl]-4-piperidyl]-methyl-amino]methyl]cyclohexyl]pyrazol-4-yl]-5-[(3r,5r)-3-amino-5-fluoro-1-piperidyl]pyrazolo[1,5-a]pyrimidine-3-carboxamide hydrochloride] | < 0.5 nM | 6 nM | 12%
C[C@@H]1CN(c2ccn3ncc(C(=O)Nc4cn([C@H]5CC[C@H](C(=O)NC6CCN(c7ccc8c(c7)CN(C7CCC(=O)NC7=O)C8=O)CC6)CC5)nc4C(F)F)c3n2)C[C@H](C)O1 (stereo partly drawn) [Compound P-33] | 9.4 nM | 24 nM | 68%
CN(c1ccc2c(c1)CN(C1CCC(=O)NC1=O)C2=O)C1CCN(C[C@H]2CC[C@H](n3cc(NC(=O)c4cnn5ccc(N6C[C@H](N)C[C@@H](F)C6)nc45)c(C(F)F)n3)CC2)CC1 (stereo partly drawn) [Compound P-34] | < 0.5 nM | 6 nM | 9%
CN(C[C@H]1CC[C@H](n2cc(NC(=O)c3cnn4ccc(N5CCOCC5)nc34)c(C(F)F)n2)CC1)[C@H]1CC[C@H](Nc2cccc3c2C(=O)N(C2CCC(=O)NC2=O)C3=O)CC1 (stereo partly drawn) [Compound P-36] | 0.9 nM | 9 nM | 29%
CN(C[C@H]1CC[C@H](n2cc(NC(=O)c3cnn4ccc(N5C[C@H](N)C[C@@H](F)C5)nc34)c(C(F)F)n2)CC1)[C@H]1CC[C@H](Nc2cccc3c2C(=O)N(C2CCC(=O)NC2=O)C3=O)CC1 (stereo partly drawn) [Compound P-37] | < 0.5 nM | 20 nM | 12%
N[C@@H]1C[C@@H](F)CN(c2ccn3ncc(C(=O)Nc4cn(C5CCN(CCN6CCN(c7ccc8c(c7)CN(C7CCC(=O)NC7=O)C8=O)CC6)CC5)nc4C(F)F)c3n2)C1 (stereo partly drawn) [Compound P-38, N-[3-(difluoromethyl)-1-[1-[2-[4-[2-(2,6-dioxo-3-piperidyl)-1-oxo-isoindolin-5-yl]piperazin-1-yl]ethyl]-4-piperidyl]pyrazol-4-yl]-5-[(3R,5R)-3-amino-5-fluoro-1-piperidyl]pyrazolo[1,5-a]pyrimidine-3-carboxamide] | < 0.5 nM | 6 nM | 10%

Next, values leading:

IC50 [1] | EC50 [2] | ALE THP1 HTRF YMIN [2] | SMILES
< 0.5 nM | 8 nM | 10% | N[C@@H]1C[C@@H](F)CN(c2ccn3ncc(C(=O)Nc4cn([C@H]5CC[C@H](CCN6CCN(c7ccc8c(c7)CN(C7CCC(=O)NC7=O)C8=O)CC6)CC5)nc4C(F)F)c3n2)C1 (stereo partly drawn) [Compound P-30, N-[3-(Difluoromethyl)-1-[4-[2-[4-[2-(2,6-dioxo-3-piperidyl)-1-oxo-isoindolin-5-yl]piperazin-1-yl]ethyl]cyclohexyl]pyrazol-4-yl]-5-[(3R,5R)-3-amino-5-fluoro-1-piperidyl]pyrazolo[1,5-a]pyrimidine-3-carboxamide dihydrochloride]
< 0.5 nM | 7 nM | 27% | O=C1CCC(N2Cc3cc(N4CCC(NC(=O)[C@H]5CC[C@H](n6cc(NC(=O)c7cnn8ccc(N9CCOCC9)nc78)c(C(F)F)n6)CC5)CC4)ccc3C2=O)C(=O)N1 (stereo partly drawn) [Compound P-31, N-[3-(difluoromethyl)-1-[4-[[1-[2-(2,6-dioxo-3-piperidyl)-1-oxo-isoindolin-5-yl]-4-piperidyl]carbamoyl]cyclohexyl]pyrazol-4-yl]-5-morpholino-pyrazolo[1,5-a]pyrimidine-3-carboxamide]
